Measured values taken from PMC8651256 (Environmental science & technology, 2021).
Entries after “also recorded” stand apart in the source; their conditions may differ.

Columns and labels:
[1] = molecular target: human serum albumin (HSA) (Homo sapiens, UniProt P02768); assay: Differential scanning fluorimetry; settings: for EC50 / ΔTm / Kd / HSA binding (in words): 0.125 mM HSA; for EC50: 4-parameter variable slope model; for EC50 / Kd: mean ± SD; for ΔTm: maximal melting temperature shift; for HSA binding (in words): DSF; for thermal shift profile at different reaction volumes (volatility check): volumes of 10, 20, 50 and 200 μL per sealed well
human serum albumin (HSA), sequence (P02768 25-609): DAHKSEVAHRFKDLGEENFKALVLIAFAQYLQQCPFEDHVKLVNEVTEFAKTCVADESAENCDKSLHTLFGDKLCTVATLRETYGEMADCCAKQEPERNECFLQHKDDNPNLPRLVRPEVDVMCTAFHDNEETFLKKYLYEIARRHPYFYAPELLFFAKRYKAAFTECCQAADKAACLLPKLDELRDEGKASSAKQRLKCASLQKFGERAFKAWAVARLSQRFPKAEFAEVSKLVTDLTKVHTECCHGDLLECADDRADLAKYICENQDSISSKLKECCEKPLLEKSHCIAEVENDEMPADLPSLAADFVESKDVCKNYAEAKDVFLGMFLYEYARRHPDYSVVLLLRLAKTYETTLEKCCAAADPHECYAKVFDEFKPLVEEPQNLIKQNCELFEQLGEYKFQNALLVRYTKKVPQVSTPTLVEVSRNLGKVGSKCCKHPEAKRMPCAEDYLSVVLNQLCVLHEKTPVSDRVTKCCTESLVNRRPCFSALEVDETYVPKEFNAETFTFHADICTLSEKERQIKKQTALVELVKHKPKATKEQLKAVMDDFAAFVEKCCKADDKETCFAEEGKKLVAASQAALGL

[2] = DMSO as solvent; cited from earlier work
[3] = PFAS, single-site ligand binding model

Row | Compound | EC50 ([1]; PFAS) [mM] | ΔTm ([1]; PFAS) [°C] | Kd [1, 3] [mM] | further results
1 | O=C(O)CCC(F)(F)C(F)(F)C(F)(F)F [3:3 FTCA, 2H,2H,3H,3H-perfluorohexanoic acid] | 2.06 ± 0.51 | 2.24 ± 0.062 | 1.71 ± 0.47 | 
2 | OCCC(F)(F)C(F)(F)C(F)(F)C(F)(F)F [4:2 FTOH, 1H,1H,2H,2H-perfluorohexane-1-ol] |  | 0 ± 0 |  | HSA binding (in words) [1]: not bound by HSA; also recorded: did not bind HSA; thermal shift profile at different reaction volumes (volatility check) [1]: no differences
3 | O=S(=O)(O)CCC(F)(F)C(F)(F)C(F)(F)C(F)(F)F [4:2 FTSA, 2H,2H,3H,3H-perfluorohexanesulfonic acid] | 1.45 ± 0.34 | 3.49 ± 0.12 | 1.07 ± 0.47 | 
4 | O=C(O)CCC(F)(F)C(F)(F)C(F)(F)C(F)(F)C(F)(F)F [5:3 FTCA, 2H,2H,3H,3H-perfluorooctanoic acid] | 1.48 ± 0.24 | 3.62 ± 0.14 | 0.62 ± 0.1 | 
5 | OCCC(F)(F)C(F)(F)C(F)(F)C(F)(F)C(F)(F)C(F)(F)F [6:2 FTOH, 1H,1H,2H,2H-perfluorooctanol] |  | 0 ± 0 |  | HSA binding (in words) [1]: not bound by HSA; also recorded: did not bind HSA; thermal shift profile at different reaction volumes (volatility check) [1]: no differences
6 | O=S(=O)(O)CCC(F)(F)C(F)(F)C(F)(F)C(F)(F)C(F)(F)C(F)(F)F [6:2 FTSA, 2H,2H,3H,3H-perfluorooctane-1-sulfonate] | 0.47 ± 0.29 | 3.60 ± 0.47 | 0.37 ± 0.34 | thermal shift profile at different reaction volumes (volatility check) [1]: no differences
7 | O=C(O)CCC(F)(F)C(F)(F)C(F)(F)C(F)(F)C(F)(F)C(F)(F)F [6:3 FTCA, 2,H,2H,3H,3H-perfluorononanoic acid] | 0.84 ± 0.21 | 9.50 ± 0.20 | 0.81 ± 0.23 | 
8 | O=C(O)CCC(F)(F)C(F)(F)C(F)(F)C(F)(F)C(F)(F)C(F)(F)C(F)(F)C(F)(F)F [8:3 FTCA, 2,H,2H,3H,3H-perfluoroundecanoate] | 1.16 ± 0.42 | 10.01 ± 0.17 | 0.97 ± 0.17 | 
9 | FC(OC(F)(F)C(F)(F)C(F)(F)F)C(F)(F)F (stereo not shown) [E1, 1,1,1,2,2,3,3-heptafluoro-3-(1,2,2,2-tetrafluoroethoxy)propane] |  |  |  | HSA binding (in words) [1]: bound by albumin; EC50 ([1]; EC50, PFAS): 2.34 ± 0.56 mM
10 | O=C(O)C(F)(OC(F)(F)C(F)(F)C(F)(F)F)C(F)(F)F (stereo not shown) [HFPO-DA, hexafluoropropylene oxide dimer acid] | 1.83 ± 0.87 | 13.7 ± 0.17 | 1.6 ± 0.55 | time to rapid and complete conversion of HFPO-DA to E1 [2]: under 4 h
11 | O=S(=O)(O)C(F)(F)C(F)(F)OC(F)(C(F)(F)F)C(F)(F)OC(F)C(F)(F)F (stereo not shown) [Nafion bp2] | 1.9 ± 0.59 | 12.4 ± 0.17 | 1.51 ± 0.37 | 
12 | O=C(O)C(F)(F)C(F)(F)C(F)(F)F [PFBA, perfluorobutanoic acid] | 2.61 ± 0.47 | 6.48 ± 0.18 | 2.57 ± 0.78 | 
13 | O=S(=O)(O)C(F)(F)C(F)(F)C(F)(F)C(F)(F)F [PFBS, perfluorobutanesulfonic acid] | 1.72 ± 0.56 | 11.9 ± 0.11 | 1.65 ± 0.69 | 
14 | O=C(O)C(F)(F)C(F)(F)C(F)(F)C(F)(F)C(F)(F)C(F)(F)C(F)(F)C(F)(F)C(F)(F)F [PFDA, perfluorodecanoic acid] | 1.11 ± 0.17 | 17.2 ± 0.13 | 1.19 ± 0.59 | 
15 | O=C(O)C(F)(F)C(F)(F)C(F)(F)C(F)(F)C(F)(F)F [PFHxA, Perfluorohexanoic acid] | 1.4 ± 0.27 | 10.6 ± 0.24 | 1.64 ± 0.47 | 
16 | O=S(=O)(O)C(F)(F)C(F)(F)C(F)(F)C(F)(F)C(F)(F)C(F)(F)F [PFHxS, perfluorohexanesulfonic acid] |  |  |  | thermal shift profile at different reaction volumes (volatility check) [1]: no differences
17 | O=C(O)C(F)(F)C(F)(F)C(F)(F)C(F)(F)C(F)(F)C(F)(F)C(F)(F)C(F)(F)F [PFNA, perfluorononanoic acid] | 0.6 ± 0.23 | 13.4 ± 0.34 | 0.58 ± 0.21 | 
18 | O=C(O)C(F)(F)C(F)(F)C(F)(F)C(F)(F)C(F)(F)C(F)(F)C(F)(F)F [PFOA, perfluorooctanoic acid] |  |  |  | EC50 ([1]; EC50, PFAS): 0.84 ± 0.15 mM; Kd ([1]; Kd, PFOA stock in HEPES-buffered saline (HBS)): 0.83 ± 0.27 mM; Kd ([1]; Kd, PFOA stock in methanol (30% in HBS)): 0.83 ± 0.15 mM
19 | O=S(=O)(O)C(F)(F)C(F)(F)C(F)(F)C(F)(F)C(F)(F)C(F)(F)C(F)(F)C(F)(F)F [PFOS, perfluorooctanesulfonic acid] | 1.13 ± 0.32 | 16.2 ± 0.90 |  | 
20 | O=C(O)C(F)(F)C(F)(F)C(F)(F)C(F)(F)F [PFPeA, perfluoropentanoic acid] | 2.14 ± 0.42 | 13.1 ± 0.066 | 2.1 ± 0.56 | 
21 | O=C(O)C(F)(F)C(F)(F)C(F)(F)C(F)(F)C(F)(F)C(F)(F)C(F)(F)C(F)(F)C(F)(F)C(F)(F)F [PFunDA, Perfluoroundecanoic acid] | 1.49 ± 0.048 | 9.02 ± 0.47 | 1.36 ± 1.06 | 
